Measured values as given in patent US20240083944A1 (priority 2021, published 2024).
Starred links: 1 amine or outer side, 2 acyl side, 3 side chain; linkers in the order of their positions; H or OH if unused. Positions of bridges follow the written chain, without caps; N, C: chain ends. Non-standard residues stand in square brackets, D forms with d. Chains are numbered I, II in the order given. X2 = O=C(CCOCCN(CCOCCC(=O)NCCOCCOCCOCCOCCOCCOCCOCCOCCOCCOCCn1cc(CCC(=O)[*:2])nn1)CCOCCC(=O)NCCOCCOCCOCCOCCOCCOCCOCCOCCOCCOCCn1cc(CCC(=O)[*:3])nn1)NCCOCCOCCOCCOCCOCCOCCOCCOCCOCCOCCn1cc(CCC(=O)[*:1])nn1; X1 = C(c1nc(C[*:2])nc(C[*:3])n1)[*:1]; tBuAla = CC(C)(C)C[C@H](N)C(=O)O; Agb = N=C(N)NCC[C@H](N)C(=O)O

Tested on: SARS-CoV-2 pseudotyped HIV-1 virions, D614G

“I: Ac-CPYVAG[Agb][dA]TCL[tBuAla]CK-NH2 / II: Ac-CPYVAG[Agb][dA]TCL[tBuAla]CK-NH2 / III: Ac-CPYVAG[Agb][dA]TCL[tBuAla]CK-NH2 (linker I:1-I:10-I:13, II:1-II:10-II:13, III:1-III:10-III:13 via X1; linker I:14-II:14-III:14 via X2) [BCY17021]” showed an IC50 of 0.5 nM.
